In patent publication US20260007681A1, “INDOLE DERIVATIVES AS ESTROGEN RECEPTOR DEGRADERS” (REGENTS OF THE UNIVERSITY OF MICHIGAN, priority 2022, published 2026):

Molecular target: T1, ER (Homo sapiens (Human), UniProt P03372)
Assay: In-cell western blot analysis of relative ER percentage (Compounds B1-B278)
Assay type: cell-based
Details: ER degradation, 16 hours, read-out: ICW DC50
Experimental: In-cell western blot analysis. Cells are seeded in multi-well plates (e.g., at 40,000 or 10,000 cells/well). Diluted compounds at certain concentration are added (final 0.5% DMSO) and cells are incubated for […] (e.g., 16 hours). Formaldehyde (e.g., PBS:FA=9:1) is added and followed by washing with PBS. The cells are blocked with Licor blocking buffer (Li-Cor). The relative ER percentage in treated cells are obtained by comparing the values of treated wells to those in untreated and DMSO-treated wells as 100%.
In-cell western blot analysis. a. seed cells in black-sided/clear bottom 96- or 384-well plates at 40,000 or 10,000 cells/well, overnight; b. add diluted compounds (final 0.5% DMSO), 16 hours. 16 h later, remove medium, add 100 μL or 25 μL of 3.7-4.0% formaldehyde (PBS:FA=9:1), RT 20 min, no shaking; c. wash with PBS, and permeabilized with 100 μL or 25 μL/well of 1×PBS+0.1% Triton X-100 10 minutes; d. block with 100 μL or 25 μL Licor blocking buffer (Li-Cor), RT 1 h, moderate shaking; d. Add 100 μL or 25 μL of anti-ER (cs-8644, 1:500-1,000)+GAPDH(Millipore MAB374, 1:1000) in Block+0.05% Tween 20. RT 2 h, gentle shaking. Negative control: cells plus secondary antibodies (no primary antibodies); e. wash×4 with PBS +0.05-0.1% Tween 20, gentel shaking; f. anti-rabbit-680 and anti-mouse-800 (both 1:1000 in LiCor block +0.05% Tween20, RT 1 h, gentle shaking, no light. LI-COR: 0.2% to reduce background; g. wash×4 with PBS+0.05% Tween 20, gental shaking; h. add 100 μL or 25 μL of PBS to each well and read on CLX plate reader. The relative ER percentage in treated cells were obtained by comparing the values of treated wells to those in untreated and DMSO-treated wells as 100%.

T1 sequence (P03372 whole entry): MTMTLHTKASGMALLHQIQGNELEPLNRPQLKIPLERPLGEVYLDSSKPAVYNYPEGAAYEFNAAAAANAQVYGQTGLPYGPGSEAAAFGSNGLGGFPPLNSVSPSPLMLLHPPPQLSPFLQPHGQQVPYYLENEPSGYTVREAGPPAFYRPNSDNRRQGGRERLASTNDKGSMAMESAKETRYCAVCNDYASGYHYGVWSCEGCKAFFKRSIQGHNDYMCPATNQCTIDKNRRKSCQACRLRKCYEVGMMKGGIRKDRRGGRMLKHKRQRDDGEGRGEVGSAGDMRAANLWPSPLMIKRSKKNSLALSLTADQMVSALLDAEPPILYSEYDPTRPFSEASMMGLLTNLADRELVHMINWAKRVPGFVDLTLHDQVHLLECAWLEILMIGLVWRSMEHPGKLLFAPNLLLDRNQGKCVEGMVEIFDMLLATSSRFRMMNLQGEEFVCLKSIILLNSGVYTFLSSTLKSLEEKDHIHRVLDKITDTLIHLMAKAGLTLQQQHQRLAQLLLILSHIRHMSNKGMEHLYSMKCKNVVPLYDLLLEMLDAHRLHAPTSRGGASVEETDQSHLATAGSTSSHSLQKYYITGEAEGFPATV

Row | Compound | DC50 [nM]
1 | C[C@@H]1Cc2c([nH]c3ccccc23)[C@@H](c2c(F)cc(N3CCC(C(=O)N4CCN5c6ccc7c(c6OC[C@H]5C4)CN(C4CCC(=O)NC4=O)C7=O)CC3)cc2F)N1CC(C)(F)F (mixture of isomers) [Compound B252, 3-((RS)-7-(1-(4-((1R,3R)-2-(2,2-difluoropropyl)-3-methyl-2,3,4,9-tetrahydro-1H-pyrido[3,4-b]indol-1-yl)-3,5-difluorophenyl)piperidine-4-carbonyl)-1-oxo-1,3,5,5a,6,7,8,9-octahydro-2H-pyrazino[1′,2′:4,5][1,4]oxazino[2,3-e]isoindol-2-yl)piperidine-2,6-dione] | 10 to 100

Molecular target: T1, ER
Assay: Western blot analysis (Compounds B1-B278)
Assay type: cell-based
Details: ER degradation by traditional Western blot; DC50 classes
How it was run: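 Relative target-protein levels come from densitometry of immunoblots, normalized to GAPDH. Lysates from treated cells were prepared in RIPA buffer (pH 7.6) containing protease inhibitors, and equal protein amounts, checked by BCA, were separated on 10% gels and blotted onto PVDF.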

Row | Compound | Traditional Western Degradation Potency
2 | C[C@@H]1Cc2c([nH]c3ccccc23)[C@@H](c2c(F)cc(C3CCC4(CC3)CCN(C(=O)CN3Cc5cc6c(cc5C3)C(=O)N(C3CCC(=O)NC3=O)C6=O)CC4)cc2F)N1CC(F)F (stereo partly drawn) [Compound B244, 6-(2-(9-(4-((1R,3R)-2-(2,2-difluoroethyl)-3-methyl-2,3,4,9-tetrahydro-1H-pyrido[3,4-b]indol-1-yl)-3,5-difluorophenyl)-3-azaspiro[5.5]undecan-3-yl)-2-oxoethyl)-2-(2,6-dioxopiperidin-3-yl)-6,7-dihydropyrrolo[3,4-f]isoindole-1,3(2H,5H)-dione] | C (“C”: >100 nM)
3 | C[C@@H]1Cc2c([nH]c3ccccc23)[C@@H](c2ccc(C3=CCC(C(=O)N4CCC(N5Cc6cc7c(cc6C5)C(=O)N(C5CCC(=O)NC5=O)C7=O)CC4)CC3)cc2F)N1CC(C)(C)F (stereo partly drawn) [Compound B245, 2-(2,6-dioxopiperidin-3-yl)-6-(1-(3′-fluoro-4′-((1R,3R)-2-(2-fluoro-2-methylpropyl)-3-methyl-2,3,4,9-tetrahydro-1H-pyrido[3,4-b]indol-1-yl)-2,3,4,5-tetrahydro-[1,1′-biphenyl]-4-carbonyl)piperidin-4-yl)-6,7-dihydropyrrolo[3,4-f]isoindole-1,3(2H,5H)-dione] | B (“B”: 10-100 nM)
4 | C[C@@H]1Cc2c([nH]c3ccccc23)[C@@H](c2ccc(C3=CCC(C(=O)N4CCC(N5Cc6cc7c(cc6C5)C(=O)N(C5CCC(=O)NC5=O)C7=O)CC4)CC3)cc2F)N1CC(C)(F)F (stereo partly drawn) [Compound B246, 6-(1-(4′-((1R,3R)-2-(2,2-difluoropropyl)-3-methyl-2,3,4,9-tetrahydro-1H-pyrido[3,4-b]indol-1-yl)-3′-fluoro-2,3,4,5-tetrahydro-[1,1′-biphenyl]-4-carbonyl)piperidin-4-yl)-2-(2,6-dioxopiperidin-3-yl)-6,7-dihydropyrrolo[3,4-f]isoindole-1,3(2H,5H)-dione] | C (“C”: >100 nM)
5 | C[C@@H]1Cc2c([nH]c3ccccc23)[C@@H](c2ncc(C3=CCC(C(=O)N4CCC(N5Cc6cc7c(cc6C5)C(=O)N(C5CCC(=O)NC5=O)C7=O)CC4)CC3)cc2F)N1CC(C)(F)F (stereo partly drawn) [Compound B247, 6-(1-(4-(6-((1S,3R)-2-(2,2-difluoropropyl)-3-methyl-2,3,4,9-tetrahydro-1H-pyrido[3,4-b]indol-1-yl)-5-fluoropyridin-3-yl)cyclohex-3-ene-1-carbonyl)piperidin-4-yl)-2-(2,6-dioxopiperidin-3-yl)-6,7-dihydropyrrolo[3,4-f]isoindole-1,3(2H,5H)-dione] | C (“C”: >100 nM)
6 | C[C@@H]1Cc2c([nH]c3ccccc23)[C@@H](c2ncc(C3=CCC(C(=O)N4CCC(N5Cc6cc7c(cc6C5)C(=O)N(C5CCC(=O)NC5=O)C7=O)CC4)CC3)cc2F)N1CC(C)(C)F (stereo partly drawn) [Compound B248, 2-(2,6-dioxopiperidin-3-yl)-6-(1-(4-(5-fluoro-6-((1S,3R)-2-(2-fluoro-2-methylpropyl)-3-methyl-2,3,4,9-tetrahydro-1H-pyrido[3,4-b]indol-1-yl)pyridin-3-yl)cyclohex-3-ene-1-carbonyl)piperidin-4-yl)-6,7-dihydropyrrolo[3,4-f]isoindole-1,3(2H,5H)-dione] | C (“C”: >100 nM)
7 | C[C@@H]1Cc2c([nH]c3ccccc23)[C@@H](c2c(F)cc(C3=CCC(C(=O)N4CCC(N5Cc6cc7c(cc6C5)C(=O)N(C5CCC(=O)NC5=O)C7=O)CC4)CC3)cc2F)N1CC1(F)CC1 (stereo partly drawn) [Compound B249, 6-(1-(3′,5′-difluoro-4′-((1R,3R)-2-((1-fluorocyclopropyl)methyl)-3-methyl-2,3,4,9-tetrahydro-1H-pyrido[3,4-b]indol-1-yl)-2,3,4,5-tetrahydro-[1,1′-biphenyl]-4-carbonyl)piperidin-4-yl)-2-(2,6-dioxopiperidin-3-yl)-6,7-dihydropyrrolo[3,4-f]isoindole-1,3(2H,5H)-dione] | C (“C”: >100 nM)
8 | C[C@@H]1Cc2c([nH]c3ccccc23)[C@@H](c2ccc(C3=CCC(C(=O)N4CCC(N5Cc6cc7c(cc6C5)C(=O)N(C5CCC(=O)NC5=O)C7=O)CC4)CC3)cc2F)N1CC1(F)CC1 (stereo partly drawn) [Compound B250, 2-(2,6-dioxopiperidin-3-yl)-6-(1-(3′-fluoro-4′-((1R,3R)-2-((1-fluorocyclopropyl)methyl)-3-methyl-2,3,4,9-tetrahydro-1H-pyrido[3,4-b]indol-1-yl)-2,3,4,5-tetrahydro-[1,1′-biphenyl]-4-carbonyl)piperidin-4-yl)-6,7-dihydropyrrolo[3,4-f]isoindole-1,3(2H,5H)-dione] | C (“C”: >100 nM)

Test system: not listed separately
Assay: Cell growth assay (WST-8) (Compounds B1-B278)
Assay type: cell-based
Details: 96 h; T47D cell line; WST-8, 4 days; read-out: Cell Growth Inhibition in T47D cell line IC50
Experimental: Cell Growth Assay. The cells are seeded at certain concentration (e.g., at 1500/well) in multi-well plates overnight. Cells are subsequently treated with the compounds. A certain period of time (e.g., 4 days) after the compound treatment, 10% WST-8 reagent is added to the culture medium and incubate under certain condiction (e.g., in a CO2 incubator at 37° C. for 2.5 hours). The absorbance is measured on each sample using a microplate reader at certain wavelength (e.g., 450 nm). The relative absorbance is calculated against the vehicle control from three individually repeats.
Cell Growth Assay. The cells were seeded at 1500/well in 96 well plates overnight. One day after the seeding, they were treated with indicated doses of compounds respectively. 4 days after the compound treatment, 10% WST-8 reagent was added to the culture medium and incubate in a CO2 incubator at 37° C. for 2.5 hours. Before reading, the plate was mixed gently on an orbital shaker for one minute to ensure homogeneous distribution of color. The absorbance was measured of each sample using a microplate reader at a wavelength of 450 nm. The relative absorbance was calculated against the vehicle control from three individually repeats.

Row | Compound | IC50 [nM]
9 | C[C@@H]1Cc2c([nH]c3ccccc23)[C@@H](c2cnc(N3CC4(CCC(N5CCN6c7cc8c(cc7OC[C@@H]6C5)C(=O)N(C5CCC(=O)NC5=O)C8)CC4)C3)nc2)N1CC(F)F (stereo partly drawn) [Compound 1B32, 3-((S)-3-(2-(5-((1R,3R)-2-(2,2-difluoroethyl)-3-methyl-2,3,4,9-tetrahydro-1H-pyrido[3,4-b]indol-1-yl)pyrimidin-2-yl)-2-azaspiro[3.5]nonan-7-yl)-8-oxo-1,2,3,4,4a,5,8,10-octahydro-9H-pyrazino[1′,2′:4,5][1,4]oxazino[2,3-f]isoindol-9-yl)piperidine-2,6-dione] | > 10
10 | C[C@@H]1Cc2c([nH]c3ccccc23)[C@@H](c2cnc(N3CC(CCN4CCN5c6cc7c(cc6OC[C@@H]5C4)C(=O)N(C4CCC(=O)NC4=O)C7)C3)nc2)N1CC(F)F (stereo partly drawn) [Compound B131, 3-((S)-3-(2-(1-(5-((1R,3R)-2-(2,2-difluoroethyl)-3-methyl-2,3,4,9-tetrahydro-1H-pyrido[3,4-b]indol-1-yl)pyrimidin-2-yl)azetidin-3-yl)ethyl)-8-oxo-1,2,3,4,4a,5,8,10-octahydro-9H-pyrazino[1,2′:4,5][1,4]oxazino[2,3-f]isoindol-9-yl)piperidine-2,6-dione] | > 10
11 | C[C@@H]1Cc2c([nH]c3ccccc23)[C@@H](c2cnc(N3CC4(CC(CN5CCN6c7cc8c(cc7OC[C@@H]6C5)C(=O)N(C5CCC(=O)NC5=O)C8)C4)C3)nc2)N1CC(F)F (stereo partly drawn) [Compound B133, 3-((S)-3-((2-(5-((1R,3R)-2-(2,2-difluoroethyl)-3-methyl-2,3,4,9-tetrahydro-1H-pyrido[3,4-b]indol-1-yl)pyrimidin-2-yl)-2-azaspiro[3.3]heptan-6-yl)methyl)-8-oxo-1,2,3,4,4a,5,8,10-octahydro-9H-pyrazino[1′,2′:4,5][1,4]oxazino[2,3-f]isoindol-9-yl)piperidine-2,6-dione] | 1 to 10
12 | COc1c2c(cc3c1CN(C1CCC(=O)NC1=O)C3=O)CN(CC(=O)N1CCC3(CC1)CCN(c1ncc([C@@H]4c5[nH]c6ccccc6c5C[C@@H](C)N4CC(F)F)cn1)CC3)C2 (stereo partly drawn) [Compound B134, 3-(6-(2-(9-(5-((1R,3R)-2-(2,2-difluoroethyl)-3-methyl-2,3,4,9-tetrahydro-1H-pyrido[3,4-b]indol-1-yl)pyrimidin-2-yl)-3,9-diazaspiro[5.5]undecan-3-yl)-2-oxoethyl)-4-methoxy-1-oxo-3,5,6,7-tetrahydropyrrolo[3,4-f]isoindol-2(1H)-yl)piperidine-2,6-dione] | < 1
